According to patent US8716558B2, “Method of altering glycosylation of proteins in response to nojirimycin glucuronide in a plant cell expressing glucuronidase” (Marker Gene Technologies, Inc., priority 1999, dated 2014):

Tested on: Arabidopsis thaliana Landsberg erecta strain DW150-307
Assay: Growth and glycoprotein glycosylation in GUS-containing plants
Format: in vivo
Settings: for carbohydrate patterns of glycoproteins compared with control seeds: ANTS and 1,5-EDANS labeling, HPLC and PAGE; for decrease in number of inflorescence stems (average) / plant growth: M0809 22 mg/L or M0872 25 mg/L in MS agar medium
Description: Arabidopsis thaliana Landsberg erecta strain DW150-307 plants were propagated from seeds. Seeds were surface-sterilized with 70% ethanol (30 seconds) and 2% sodium hypochlorite (15 minutes), and then placed on a plant hormone-free MS agar medium. After incubation at 4° C. for 2 days, the seeds were cultured at 25° C. for one week while the daylight hours were kept to be 16 hours. The cotyledons were taken from the obtained sterile seedlings and then placed on an MS agar medium containing either deoxynojirimycin b-D-glucuronide methyl ester (M0809) (22 mg/L) or deoxymannonojirimycin b-D-glucuronidetriacetate, methyl ester (M0872) (25 mg/L) (regeneration medium in 9 cm Petri dish), and cultured under the same conditions as those described above for 6 days. Plants were transplanted into fresh media containing the same concentrations of M0809 or M0872 as above, and growth continued for an additional 19 days, until full seed pods were obtained. Plants grew normally on media containing the M0809 or M0872, except that the number of inflorescence stems was decreased (an average of 50%) in the treated plant specimens. Seed pods, floral and stem tissues from these plants were harvested, and seeds dried briefly in vacuo (10 mm Hg, 1 hour). Seeds were crushed, and carbohydrate content of all tissues analyzed using the ANTS and 1,5-EDANS labeling systems, followed by HPLC analysis and PAGE electrophoretic analysis.

Compound	carbohydrate patterns of glycoproteins compared with control seeds	decrease in number of inflorescence stems (average)	plant growth
COC(=O)C1OC(OCC2NCC(O)C(O)C2O)C(O)C(O)C1O [Example M0809, deoxynojirimycin b-D-glucuronide methyl ester]	modified in structure	50%	grew normally
COC(=O)C1OC(OCC2NCC(O)C(O)C2O)C(OC(C)=O)C(OC(C)=O)C1OC(C)=O [Example M0872, deoxymannonojirimycin b-D-glucuronidetriacetate, methyl ester]	modified in structure	50%	grew normally
